Laboratory results: patent publication US20120252741A1, “NOVEL SEMI-SYNTHETIC GLYCOPEPTIDES AS ANTIBACTERIAL AGENTS” (priority 2008, published 2012)

Experiments:
Assay type in all cases: cell-based
[1] = tested on: Enterococcus faecium 752 (VRE, Van A); test: MIC, broth microdilution, EFcm 752; conditions: Table 2; VRE, Van A; in the presence of 0.002% Polysorbate 80; class symbols; read-out: MIC E FCM 752
Experimental: (§1) Antibacterial activity in vitro is investigated by broth microdilution method in Meuller-Hinton broth as recommended by NCCLS. All strains tested are clinical isolates either sensitive or resistant to natural glycopeptides. MIC values were determined using the CLSI-recommended broth microdilution procedure (Clinical and Laboratory Standards Institute, Methods for Dilution Antimicrobial Susceptibility Tests for Bacteria That Grow Aerobically; Approved Standard-Seventh Edition.). Automated liquid handlers (Multidrop 384, Labsystems, Helsinki, Finland; Biomek 2000 and Multimek 96, Beckman Coulter, Fullerton Calif.) were used to conduct serial dilutions and liquid transfers. The MIC value for vancomycin is given for comparison. The abbreviations for organisms tested are as follow: SA 100—Staphylococcus aureus 100 (ATCC 29213); SA 757—Staphylococcus aureus 757 (MRSA); SA 2012—Staphylococcus aureus 2012 (VISA); SE 835—Staphylococcus epidermidis 835; SE 831—Staphylococcus epidermidis 831 (MRSE); EFc 101—Enterococcus faecalis 101 (ATCC 29212); EFc 848—Enterococcus faecalis 848 (VRE, Van A); EFcm 800—Enterococcus faecium 800; EFcm 752—Enterococcus faecium 752 (VRE, Van A); SPNE 1195—Streptococcus pneumoniae 1195 (ATCC 49619); SPY 712—Streptococcus pyogenes 712.

[2] = tested on: Streptococcus pneumoniae 1195 (ATCC 49619); test: MIC, broth microdilution, SPNE 1195; conditions: Streptococcus pneumoniae, ATCC49619; Table 2; in the presence of 0.002% Polysorbate 80; class symbols; read-out: MIC S PNE 1195
Experimental: as §1

Enterococcus faecium 800 = test: MIC, broth microdilution, EFcm 800; conditions: Enterococcus faecium, 800; Table 2; in the presence of 0.002% Polysorbate 80; class symbols; read-out: MIC E FCM 800
Experimental: as §1

[3] = tested on: Enterococcus faecalis 101 (ATCC 29212); test: MIC, broth microdilution, EFc 101; conditions: Enterococcus faecalis, ATCC29212; Table 2; in the presence of 0.002% Polysorbate 80; class symbols; read-out: MIC E FC 101
Experimental: as §1

[4] = tested on: Staphylococcus aureus 100 (ATCC 29213); test: MIC, broth microdilution, SA 100; conditions: Staphylococcus aureus, ATCC29213; Table 2; in the presence of 0.002% Polysorbate 80; class symbols; read-out: MIC SA 100
Experimental: as §1

[5] = tested on: Staphylococcus aureus 2012 (VISA); test: MIC, broth microdilution, SA 2012; conditions: Table 2, in the presence of 0.002% Polysorbate 80, class symbols, read-out: MIC SA 2012
Experimental: as §1

[6] = tested on: Enterococcus faecalis 848 (VRE, Van A); test: MIC, broth microdilution, EFc 848; conditions: Table 2; VRE, Van A; in the presence of 0.002% Polysorbate 80; class symbols; read-out: MIC E FC 848
Experimental: as §1

[7] = tested on: Staphylococcus aureus 757 (MRSA); test: MIC, broth microdilution, SA 757; conditions: Table 2, in the presence of 0.002% Polysorbate 80, class symbols, read-out: MIC SA 757
Experimental: as §1

[8] = tested on: Streptococcus pyogenes 712; test: MIC, broth microdilution, SPY 712; conditions: Streptococcus pyogenes, 712; Table 2; in the presence of 0.002% Polysorbate 80; class symbols; read-out: MIC S PYO 712
Experimental: as §1

[9] = tested on: Staphylococcus epidermidis 835; test: MIC, broth microdilution, SE 835; conditions: Staphylococcus epidermidis, 835; Table 2; in the presence of 0.002% Polysorbate 80; class symbols; read-out: MIC SE 835
Experimental: as §1

[10] = tested on: Staphylococcus epidermidis 831 (MRSE); test: MIC, broth microdilution, SE 831; conditions: Staphylococcus epidermidis, Table 2, in the presence of 0.002% Polysorbate 80, class symbols, read-out: MIC SE 831
Experimental: as §1

| Compound | MIC [1] | MIC [2] | MIC (Enterococcus faecium 800) | MIC [3] | MIC [4] | MIC [5] | MIC [6] | MIC [7] | MIC [8] | MIC [9] | MIC [10] |
| --- | --- | --- | --- | --- | --- | --- | --- | --- | --- | --- | --- |
| CN[C@H](CC(C)C)C(=O)N[C@H]1C(=O)N[C@@H](CC(=O)NC(=O)c2ccc(OCCN)c(OCCN)c2)C(=O)N[C@H]2C(=O)N[C@H]3C(=O)N[C@H](C(=O)N[C@H](C(=O)NC4C5CC6CC(C5)CC4C6)c4cc(O)cc(O)c4-c4cc3ccc4O)[C@H](O)c3ccc(c(Cl)c3)Oc3cc2cc(c3O[C@@H]2O[C@H](CO)[C@@H](O)[C@H](O)[C@H]2O)Oc2ccc(cc2Cl)[C@H]1O (stereo partly drawn) [Compound 159] | 4 to 8 µg/mL | 0.5 to 1 µg/mL | 0.01 to 0.5 µg/mL | 0.5 to 1 µg/mL | 0.5 to 1 µg/mL | 0.5 to 1 µg/mL | > 16 µg/mL | 0.5 to 1 µg/mL | 0.01 to 0.5 µg/mL | 0.5 to 1 µg/mL | 0.01 to 0.5 µg/mL |
| CN[C@H](CC(C)C)C(=O)N[C@H]1C(=O)N[C@@H](CC(=O)NC(=O)c2ccc(OCCCN)c(OCCCN)c2)C(=O)N[C@H]2C(=O)N[C@H]3C(=O)N[C@H](C(=O)N[C@H](C(=O)NC4C5CC6CC(C5)CC4C6)c4cc(O)cc(O)c4-c4cc3ccc4O)[C@H](O)c3ccc(c(Cl)c3)Oc3cc2cc(c3O[C@@H]2O[C@H](CO)[C@@H](O)[C@H](O)[C@H]2O)Oc2ccc(cc2Cl)[C@H]1O (stereo partly drawn) [Compound 163] | 4 to 8 µg/mL | 0.5 to 1 µg/mL | 0.5 to 1 µg/mL | 1 to 2 µg/mL | 1 to 2 µg/mL | 1 to 2 µg/mL | > 16 µg/mL | 1 to 2 µg/mL | 0.01 to 0.5 µg/mL | 1 to 2 µg/mL | 0.01 to 0.5 µg/mL |
| CCNCCOCc1cc(OCCNCC)cc(C(=O)NC(=O)C[C@@H]2NC(=O)[C@H](NC(=O)[C@@H](CC(C)C)NC)[C@H](O)c3ccc(c(Cl)c3)Oc3cc4cc(c3O[C@@H]3O[C@H](CO)[C@@H](O)[C@H](O)[C@H]3O[C@H]3C[C@](C)(N)[C@H](O)[C@H](C)O3)Oc3ccc(cc3Cl)[C@@H](O)[C@@H]3NC(=O)[C@H](NC(=O)[C@@H]4NC2=O)c2ccc(O)c(c2)-c2c(O)cc(O)cc2[C@@H](C(=O)NC2C4CC5CC(C4)CC2C5)NC3=O)c1 (stereo partly drawn) [Compound 164] | 8 to 16 µg/mL | 0.01 to 0.5 µg/mL | 0.01 to 0.5 µg/mL | 0.01 to 0.5 µg/mL | 0.01 to 0.5 µg/mL | 1 to 2 µg/mL | > 16 µg/mL | 0.01 to 0.5 µg/mL | 0.01 to 0.5 µg/mL | 0.01 to 0.5 µg/mL | 0.01 to 0.5 µg/mL |
